Broadly, the IC50 is the concentration that inhibits the measured activity by half. In general, MIC refers to the least concentration at which growth counts as inhibited. High values mean a need for much substance, low ones inhibition by little substance.

In brackets after ≈: the same amount, converted by molar mass. Residues, ends and D or L forms follow the SMILES beside them. *: point of attachment. Palmitoyl = CCCCCCCCCCCCCCCC(=O)*

The source of these data is paper PMC11003925, “Antimicrobial activity and properties of de novo design of short synthetic lipopeptides” (Folia Microbiologica, 2024).

One assay concerns plasmid pGreen 0029. The experiment in a line: DNA binding assay (gel retardation). Particulars: circular or linearized forms, tested ratios. The procedure:
This assay was performed as described by Park et al. ([1998]), with a few modifications. […] The reaction mixture was incubated at room temperature for 1 h. Subsequently, 4 µL of native loading buffer (10% Ficol, 10 mM Tris–HCl (pH 7.5), 50 mM EDTA, 0.25% bromophenol blue) was added. An aliquot was applied to 1% agarose gel electrophoresis in 0.5xTris borate-EDTA buffer. Circular plasmid DNA was isolated from (Luria–Bertani medium with AMPI in final concentration 100 µg/mL) bacterial strain E. coli DH5α / pBluescriptII KS- that had been grown overnight, and linearization was performed overnight by enzymatic reaction using restriction endonuclease EcoRV at 37 °C. The evaluation was performed by visualizing the DNA with the intercalation dye Midori Green Advanced DNA Stain under UV light. Reduced electrophoretic mobility compared to the control is considered to be evidence of peptide binding to DNA.
According to the previous results, we decided to clarify one of the possible molecular interaction mechanisms, the ability of the studied lipopeptides to bind microbial plasmid DNA. Based on the assumption that pore formation is only one of the influencing factors, which arose from previous results, the effect on one of the possible intracellular targets, DNA, was determined. This determination was carried out on isolated plasmid DNA, specifically on two plasmids, pGreen 0029 and pBluescript II KS- in circular and linearized form.

The test system of a further assay is Ps. aeruginosa DBM 3081. Format: cell-based, Pseudomonas aeruginosa. The settings on record: 25 h. As for the experimental part:
(§1) A Bioscreen C automated microbiology growth curve analysis system (Growth Curves, Piscataway, NJ, USA) was used for the quantitative determination of antimicrobial activity (minimal inhibitory concentration, MIC) of PAL/LCA-peptides. Optical density was measured with a wide bandpass filter (wavelength range 420–580 nm) at regular intervals and temperatures. This assay was performed in a special microtiter plate (10 × 10 wells) that allowed the simultaneous testing of a large number of samples against several microorganisms. The total testing volume was 100 µL, obtained by mixing 10 µL of microbial culture with OD600 equal to 0.1 with growth medium and a solution of the tested compounds. The positive controls were vancomycin and tetracycline for Bacillus subtilis (100 µg/mL) for Gram-positive bacteria, kanamycin, and tetracycline for Acinetobacter baumannii (100 µg/mL) for Gram-negative bacteria, and clotrimazole or amphotericin (100 µg/mL) for fungi. The maximal concentration of tested lipoproteins was 1 mg/mL. A pure growth medium was used as the negative control. The measurement period was 25 h. The lowest concentration with a 100% inhibition effect for 24 h of incubation was chosen as the MIC. The antibacterial activity of each compound was expressed as the minimum inhibitory concentration MIC (MIC is the lowest concentration of the compound needed to inhibit the growth of bacterial cells) and IC50 (IC50 is the concentration of the compound needed to inhibit the growth of bacterial cells by 50%).

The subject of a further assay is Staph. aureus MRSA1. Type of assay: cell-based, Staphylococcus aureus. Particulars: 24 h, 2. The procedure:
This assay was used to determine how quick the effect of PAL/LCA-peptides is on bacteria, as well as whether the activity of these compounds is dependent on the presence of active bacterial metabolism (Kamysz et al. [2007]). The bacterial cultures were incubated overnight at 37 °C in Mueller–Hinton’s broth 2 or potassium phosphate buffer (0.1 M, pH 7). Cultures were diluted to OD600 equal to 0.1 and divided into 2 samples, and the final volume of each sample was 1 mL; after that, they were centrifuged (5000 × g, 10 min) to collect bacteria. […] The samples were incubated at 37 °C. At specific time intervals, samples of bacterial suspension were taken, diluted, and spread on Petri dishes with Mueller–Hinton’s agar to count the number of surviving cells as colony-forming units (CFU). The whole experiment lasted 24 h.

For a further assay, the system named is A. baumannii DBM 3183. The experiment in a line: microbe, parasite or virus in culture. Type of assay: cell-based, Acinetobacter baumannii. Particulars: DBM 3183, 25 h. As for the experimental part:
as §1

For a further assay, the system named is B. subtilis DBM 3006. Format: cell-based, Bacillus subtilis. As for the experimental part:
as §1

The test system of another assay is bacterial membrane. In words: Membrane disruption (released lactate dehydrogenase activity). Format: cell-based, Staphylococcus aureus. Particulars: 1 h incubation at 37 °C, LDH kit, triplets. As for the experimental part: The disruption of the microbial membrane was followed by the detection of lactate dehydrogenase activity released from the intracellular space using a Cytotoxicity Detection Kit (LDH) from Roche (Korzeniewski and Callewaert [1983]; Macurkova et al. [2014]) after 1 h incubation at 37 °C with the PAL/LCA-peptide. The culture supernatant was collected and incubated with the reaction mixture from the kit. In the first step, NAD^+ is reduced to NADH + H^+ by the LDH-catalyzed conversion of lactate to pyruvate. In the second step, the catalyst (diaphorase) transfers H/H^+ from NADH + H^+ to the tetrazolium salt 2-(4-iodophenyl)-3-(4-nitrophenyl)-5-phenyl-2H-tetrazolium chloride (INT), which is reduced to formazan. The formazan dye formed is red and water-soluble and gives a broad absorption maximum at 500 nm. An increase in the amount of dead or plasma membrane-damaged cells results in an increase in the LDH activity in the cell culture supernatant.
To determine the degree of damage to the cell membrane (%) by the tested substances, averages of absorbances (triplets) were calculated from the measured values for the samples, controls, and pure medium. Subsequently, the absorbance average for the clean medium (background) was subtracted from all averages obtained in this way. The degree of damage to the cell membrane by the tested substances was expressed as follows: membranedamage%=((AVZ-∅ANK)/(∅APK-ANK))∙100 ∅AVZ⋯averageabsorbanceofsample ∅ANK⋯averageabsorbanceofnegativecontrol ∅APK⋯averageabsorbanceofpositivecontrol

On to `CCCCCCCCCCCCCCCC(=O)N[C@@H](CC(C)C)C(=O)N[C@H](C(=O)N[C@@H](CCCCN)C(=O)N[C@@H](CCCNC(=N)N)C(=O)N[C@@H](C)C(=O)NCC(N)=O)C(C)C` [SHP-1.2, PAL-LVKRAG-NH2] (Palmitoyl-LVKRAG-NH2), for which the “influence on electrophoretic mobility of plasmid DNA” value in the assay on plasmid pGreen 0029 is given as “did not exhibit any influence”. Besides, the half-maximal inhibitory concentration (IC50) amounted to 60.0 µg/mL (≈ 68.2 µM) in the assay on Ps. aeruginosa DBM 3081; 60.0 µg/mL (≈ 68.2 µM) with A. baumannii DBM 3183; 25.0 µg/mL (≈ 28.4 µM) in the assay with B. subtilis DBM 3006 (DBM 3006, 25 h). Besides, the “bacteria killed within half an hour” value with Staph. aureus MRSA1 was found to be 100%. In the assay on B. subtilis DBM 3006 (DBM 3006, 24 h), the MIC is on record as 16.9 µg/mL (≈ 19.2 µM). Further, the figures for the “Membrane damage (%)” value with bacterial membrane (KP (potassium phosphate buffer)) and in the assay on bacterial membrane (MHB (Mueller–Hinton broth II)) were 32 ± 4% and 26 ± 3%, respectively.
